From ChEMBL document CHEMBL1144271, “Carbonic anhydrase inhibitors: synthesis and inhibition of cytosolic/tumor-associated carbonic anhydrase isozymes I, II, and IX with bis-sulfamates” (Bioorg Med Chem Lett, 2005)

Columns and labels:
Carbonic anhydrase 9 = Carbonic anhydrase 9 (Homo sapiens, UniProt Q16790)
Carbonic anhydrase 1 = Carbonic anhydrase 1 (Homo sapiens, UniProt P00915)
Carbonic anhydrase 1, sequence (P00915 whole entry): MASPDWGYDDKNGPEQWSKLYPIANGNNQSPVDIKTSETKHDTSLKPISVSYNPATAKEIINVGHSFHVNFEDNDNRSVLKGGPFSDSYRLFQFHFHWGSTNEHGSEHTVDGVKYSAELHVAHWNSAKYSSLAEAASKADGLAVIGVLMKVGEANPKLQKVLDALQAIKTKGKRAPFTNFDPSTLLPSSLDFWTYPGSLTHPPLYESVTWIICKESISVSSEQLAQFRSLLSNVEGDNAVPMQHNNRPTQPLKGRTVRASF

| Compound | Ki (Carbonic anhydrase 9) [µM] | Ki (Carbonic anhydrase 1) [µM] |
| --- | --- | --- |
| NS(=O)(=O)OCCCCCCCOS(N)(=O)=O | 0.0101 | – |
| C[C@]12CC[C@@H]3c4ccc(OS(N)(=O)=O)cc4CC[C@H]3[C@@H]1CC[C@@H]2OS(N)(=O)=O | – | 6 |
| NS(=O)(=O)OCc1ccc(COS(N)(=O)=O)cc1 | 0.0616 | > 0.02 |
